“Also recorded” adds a separate entry of the source. Like-named read-outs stand apart in the source and are kept apart here.
Assays:
TGFβ3 mRNA = experiment: mRNA expression in treated mouse wounds; assay type: in vivo; conditions: P<0.05
[1] = test system: healing skin of aged diabetic pigs; experiment: Tensiometry of healed pig skin; assay type: in vivo; conditions: vs placebo
Procedure: At termination, an approximately 8 mm×16 mm tensiometry sample was collected from the dorsal side of each wound site that spanned the cranial to caudal aspect of the wound for analysis. This procedure was performed and data maintained by sponsor personnel. No details of analysis or results were included in this in-life report. […] Using Mason Trichrome (FIG. 22, panels A-H) and H&E stains (FIG. 22, panel I). Collagen content and other histological changes in healing skin were examined. Tensiometry was employed to quantify differences in tensile strength between placebo and valsartan treated wounds.

[2] = test system: healing skin of aged diabetic pigs; experiment: Masson's trichrome and H&E staining of skin sections from aged diabetic pigs; assay type: in vivo, pig
Description: Using Mason Trichrome (FIG. 22, panels A-H) and H&E stains (FIG. 22, panel I). Collagen content and other histological changes in healing skin were examined. Tensiometry was employed to quantify differences in tensile strength between placebo and valsartan treated wounds.

in vivo = conditions: Yucatan miniature swine, pig
Procedure: Plasma standards and samples (50 μL) were extracted in 500 μL methanol containing 100 nM losartan (internal standard). Extracts were centrifuged at 16000×g for 5 minutes at 4° C. to precipitate proteins. Extracts (500 μL) were transferred to a new tube and dried in vacuum at 45° C. for 90 minutes. Samples were reconstituted in 30% acetonitrile in water (50 μL) and centrifuged as above. Supernatants (45 μL) were transferred to a 96 well plate. Analytes (10 μL) were separated on an Agilent 1290 UPLC system with a c18 column using a gradient run of 50-95% acetonitrile over 2 minutes at 0.4 mL/minute and detected on an Agilent 6520 QTOF mass spectrometer. Standards within the quantifiable range were used to generate a standard curve.
Prior to surgery (Day 0), Day 10 (pre-dose), Day 18 (pre-dose), and Day 57 (prior to termination); blood samples (3 mL/animal) were collected, processed to plasma by centrifuging for approximately 15 minutes at 3000 rpm at 4° C., transferred into labeled cryovials, immediately frozen on dry ice, and shipped to the sponsor for future analysis.

[3] = test system: wounds of diabetic (Leprdb) mice; experiment: Mouse model wound healing experiments, planimetric wound closure; assay type: in vivo; conditions: topical, applied from 7 days after wounding (proliferation/remodeling phase)
Description: In FIG. 11, the “ratio” (y-axis) reflects the percentage of wound closure as compared to the wound size on day 7 in the same animal.

[4] = assay type: in vivo; conditions: body weight, blood pressure, blood glucose, serum chemistry and hematology
Description: Prior to this study, selected male animals had been castrated and fitted with vascular access ports (VAP) for diabetic induction. After these animals had fully recovered from VAP procedures, diabetes was chemically-induced using alloxan. Following induction, the glucose levels of the animals was monitored and regulated with Vetsulin (or equivalent). A glucometer and/or other appropriate device was used to determine glucose levels of the animals. VAP procedures, diabetic induction, and recovery periods were conducted under a separate SRC standard protocol prior to the initiation of this study. Glucose levels of all study animals were monitored and regulated at least once daily during the study to keep within targeted glucose range (target 200 to 600 mg/dL). Blood pressure was determined for each animal on Days 7, 8, 18, and 57 (prior to termination).
General in-cage/pen observations for mortality/moribundity were made at least daily.
Animals were weighed once during acclimation (Day −1) and again prior to termination (Day 57).
Day −5 (acclimation), Day 10 (pre-dose), Day 18 (pre-dose) and Day 57 (prior to termination); blood samples for CBC and serum chemistries were collected for clinical pathology analysis from each animal and analyzed by SRC. • Hematology: Blood samples (3 mL/animal) were collected from all animals. K3EDTA was used as anticoagulant. […]

mitochondrial Cox IV = experiment: Mitochondrial content in aged diabetic pig wounds; assay type: in vivo
Description: (§1) An increase in a-SMA and phosphorylated VEGF Receptor 2 was also observed. Finally, the inventors have previously reported the presence of a functional mitochondrial angiotensin system within the mitochondria that played a role in mitochondrial bioenergetics regulation.

[5] = test system: 5 cm full-thickness circular excisional wounds; experiment: Wound healing in aged diabetic Yucatan miniature swine: digital photography, planimetry, image analysis; assay type: in vivo, Sus scrofa
Procedure: Both gels are applied daily. • Wound measurements: On a daily basis, planimetry and digital photography are conducted to assess changes in wound size. • Upon complete closure: Healed wound tissue is collected and analyzed. The study had two treatment groups, which consisted of a test article treatment or a vehicle control treatment on three diabetic (alloxan-induced) Yucatan miniature swine. The acclimation period was 7 days. On Day 0, each study animal underwent surgery to create 8 (4 per side) 5 cm full-thickness circular excisional wounds on their dorsal surface. All wounds were initially topically treated with the same (Treatment A) compound once daily for the first 7 days (Day 0 through Day 6). Thereafter, 4 wounds per animal received daily topical administration of Treatment B, and the other 4 wounds received Treatment C for the duration of the study. All wound sites (8 per animal) were covered with one dressing type. All wounds were observed/evaluated up through final sample collection (Day 57). The experimental study design, including treatment groups and wound sites/time points, and variables to be evaluated and intervals are presented in Tables 1 through 3. On Day 0, the dorso-lateral back area of each animal was closely clipped with electric clippers. Each animal was prepared for surgery using alternating disinfecting scrubs and isopropyl alcohol rinses. The surgical area was draped and a sufficiently large hole(s) was created within the drape(s). The proposed wound sites were outlined using a sterile template and sterile marker. […] Refer to FIG. 3. • a. Using a surgical blade, eight 5 cm full-thickness circular excisional wounds were created (down to the fat layer). All excised tissue from each wound site was discarded. • b. Direct pressure was utilized to obtain hemostasis. • c. […] Each animal was monitored until it had completely recovered from the anesthesia. […] Each animal was monitored until it had completely recovered from anesthesia (if employed). […]

[6] = cited from earlier work
[7] = test system: phosphorylated Smad1, 5 and 9; experiment: Immunohistochemistry of Smads in wounds of aged diabetic pigs; assay type: in vivo; conditions: pig wounds, vs placebo
Description: (§2) Although not completely characterized, wound healing is greatly influenced by subtle changes of transforming growth factor-beta (TGF-β) superfamily, which is strongly influenced by RAS. TGF-β signaling mediate the phosphorylation of Smad family proteins. Phosphorylated Smads then translocate to the nucleus with the common-mediator (co-Smad) Smad4. Additionally, Smad activity is also regulated by phosphorylation through non-receptor kinases such as p42/44 mitogen activating protein kinase (MAPK) and p38 MAPK. In chronic wounds, failure of TGF-β Smad 2 and 3 phosphorylation and reduction in p42/44 MAPK activity was associated with a slower proliferative rate and impaired healing. RAS has been tightly linked to TGFβ activity but the specific effects of AT1R on the different Smads during wound healing are not known.

Smad2 = experiment: as above; assay type: in vivo; conditions: pig wounds, vs placebo
Description: as §2

Smad3 = experiment: as above; assay type: in vivo; conditions: pig wounds, vs placebo
Description: as §2

Smad1 = experiment: as above; assay type: in vivo; conditions: pig wounds, vs placebo
Description: as §2

AT2R mRNA = experiment: mRNA expression in treated mouse wounds; assay type: in vivo
wounds of AT2R^−/− mice = experiment: Wound healing in AT2R^−/− mice; assay type: in vivo, mouse
Description: Pharmacologically, ARBs and ACE inhibitors differ on their mechanism of action and the level at which they block RAS. While ARBs block RAS distally at the AT1R level, ACEi block the conversion of Angiotensin I to Angiotensin II and thereby diminishing available Angiotensin II to bind to either AT1R or AT2Rs. […] Collagen is a marker for assessing skin strength.

p42/44 MAPK = experiment: Proliferation and angiogenesis markers in aged diabetic pig wounds; assay type: in vivo
Description: as §1

[8] = test system: alpha-smooth muscle actin (α-SMA); experiment: as above; assay type: in vivo
Description: as §1

VEGF Receptor 2 = experiment: as above; assay type: in vivo
Description: as §1

wound = experiment: Diabetic mouse and pig wound models, timing of topical application (summary statements); assay type: in vivo; conditions: first 1-7 days after wounding

Q: Which results are given for `CCCCC(=O)N(Cc1ccc(-c2ccccc2-c2nnn[nH]2)cc1)[C@H](C(=O)O)C(C)C` [valsartan]?
A: decrease in TGFβ3 mRNA (TGFβ3 mRNA): 0.6 fold; tensile strength of healing skin [1]: higher tensile strength; zone of dermal collagen [2]: expanded zone of dermal collagen; dermal collagen layer thickness ([2]; P<0.001 vs placebo): 6±0.2 mm; epidermal layer thickness ([2]; P<0.001 vs placebo): 192±11 μm; collagen fiber arrangement (ultrastructural analysis) ([2]; vs placebo): more organized collagen fiber arrangement; concentration at 57 day (in vivo): < 1 nM; wound healing / wound closure [3]: more efficacious in accelerating wound healing compared to losartan; tolerability / adverse animal health effects [4]: no observed adverse animal health effects; mitochondrial Cox IV / mitochondrial numbers (mitochondrial Cox IV): significant increase in the mitochondrial numbers; mitochondrial Cox IV / mitochondrial numbers (mitochondrial Cox IV; listed as topical Valsartan): increase in mitochondrial COX IV; epithelization (automated digital analysis of wound images) ([5]; aged diabetic pigs, vs placebo): higher rates of epithelization; slough at the wound base (automated digital analysis of wound images) ([5]; aged diabetic pigs, vs placebo): lower accumulation of slough at the wound base; also recorded: clearance of slough; healing rate / wound closure rate (planimetry) as compared to placebo ([5]; diabetic pigs, daily topical from Day 7, 57 days): faster wound closure rates; expected blood level of Valsartan in a human on oral Valsartan [6]: 4 to 5 µM; Smad1, 5, 9 phosphorylation [7]: decreased; also recorded: decrease in the expression; Smad2 expression (Smad2): decrease in the expression; Smad2 expression (Smad2; listed as topical Valsartan): inhibited; Smad3 expression (Smad3): higher expression; phosphorylated Smad3 (Smad3): higher expression; Smad3 expression (Smad3; listed as topical Valsartan): activated; phosphorylated Smad3 (Smad3; listed as topical Valsartan): increase in phosphorylated Smad3; Smad1 expression (Smad1): decrease in the expression; Smad1 expression (Smad1; listed as topical Valsartan): inhibited; AT2R mRNA (AT2R mRNA): statistically non-significant increase; wound healing / wound closure in AT2R^−/− mice (wounds of AT2R^−/− mice): delayed healing; phosphorylation of p42/44 MAPK (p42/44 MAPK): enhanced phosphorylation of p42/44 MAPK; α-SMA [8]: increase; phosphorylated VEGF Receptor 2 (VEGF Receptor 2): increase; wound healing when applied during the inflammatory phase (wound): made the wounds bigger; wound healing when applied during the inflammatory phase (wound; listed as topical valsartan): significantly impaired wound healing

From US20160243080A1, “FORMULATIONS OF ANGIOTENSIN RECEPTOR BLOCKERS” (priority 2015, published 2016)
